In ChEMBL document CHEMBL4483862, “Open-source discovery of chemical leads for next-generation chemoprotective antimalarials” (2018):

System: Plasmodium berghei
Test: Luciferase/luciferin-expressing antifolate-resistant parasites were used to infect a culture of HepG2 cells that were pre-incubated with compounds. Infected hepatocytes emit light due to the luciferase reaction. Assay results are presented as the percent inhibition of light emission compared to control. […]
Type: functional
Details: sporozoite; for IC90: read-out: LUCIFERASE INFECTION ASSAY - IC90
[1] = read-out: LUCIFERASE INFECTION ASSAY - IC50

Structure (SMILES) | IC90 | IC50 [1] | also measured
N#C/C(=N\Nc1cccc(C(F)(F)F)c1)S(=O)(=O)c1ccsc1 | > 9.18 µM | – | IC50 (HEPG2TOX_HILL_SLOPE 2.11, HEPG2TOX_R_SQUARED 0.943, PBLUC_HILL_SLOPE 4.11, PBLUC_R_SQUARED 0.604, read-out: LUCIFERASE INFECTION ASSAY - IC50): 6.42 µM
C=CCN(c1ccc(F)cc1)S(=O)(=O)c1cc(C(=O)OCC(=O)C23CC4CC(CC(C4)C2)C3)ccc1Cl | > 10 µM | – | IC50 (FFLUC_HILL_SLOPE 7.93, FFLUC_R_SQUARED 0.0643, HEPG2TOX_HILL_SLOPE 7, HEPG2TOX_R_SQUARED 0.225, PBLUC_HILL_SLOPE 4.62, PBLUC_R_SQUARED 0.186, read-out: LUCIFERASE INFECTION ASSAY - IC50): 6.94 µM
COC(=O)c1occc1/C=C/C(=O)c1ccc(OCc2ccccc2)cc1 | > 10 µM | > 10 µM | –
COc1cc(OC)c(NC(=O)c2cc3ccccc3cc2OCC(=O)NC(C)c2ccccc2)cc1Cl (configuration not stated) | > 10 µM | > 10 µM | –
O=C(Nc1ccc(OC(F)(F)F)cc1)Nc1cc(-c2cccs2)n[nH]1 | > 8.96 µM | > 8.96 µM | –
CC(=O)NCCc1nccn1Cc1ccccc1 | > 10 µM | > 10 µM | –
CCCc1cc(NCc2cccnc2)n2nc(C)c(-c3ccccc3)c2n1 | > 9.23 µM | – | IC50 (PBLUC_HILL_SLOPE 1.13, PBLUC_R_SQUARED 0.661, read-out: LUCIFERASE INFECTION ASSAY - IC50): 3.19 µM
COc1ccc(CN2CCCN(C(=O)c3ccc(CSc4nc5ccccc5[nH]4)cc3)CC2)cc1 | > 10 µM | – | IC50 (HEPG2TOX_HILL_SLOPE 1.31, HEPG2TOX_R_SQUARED 0.944, read-out: LUCIFERASE INFECTION ASSAY - IC50): > 10 µM
Cc1ccc(C(=O)Nc2nc(-c3ccccn3)cs2)cc1S(=O)(=O)N1CCOCC1 | 9.81 µM | – | IC50 (HEPG2TOX_HILL_SLOPE 1.67, HEPG2TOX_R_SQUARED 0.851, PBLUC_HILL_SLOPE 9.71, PBLUC_R_SQUARED 0.0304, read-out: LUCIFERASE INFECTION ASSAY - IC50): 7.83 µM
O=S(=O)(Nc1csc(C(F)(F)F)c1-c1ccccc1)c1cc(Cl)c(Cl)s1 | 6.91 µM | – | IC50 (FFLUC_HILL_SLOPE 1.1, FFLUC_R_SQUARED 0.492, HEPG2TOX_HILL_SLOPE 2.51, HEPG2TOX_R_SQUARED 0.937, PBLUC_HILL_SLOPE 4.37, PBLUC_R_SQUARED 0.518, read-out: LUCIFERASE INFECTION ASSAY - IC50): 4.18 µM
COc1cc(/C=C2\COc3c(Cl)cc(Cl)cc3C2=O)cc(OC)c1O | 7.17 µM | – | IC50 (FFLUC_HILL_SLOPE 30.3, FFLUC_R_SQUARED 0.145, HEPG2TOX_HILL_SLOPE 11.5, HEPG2TOX_R_SQUARED 0.166, PBLUC_HILL_SLOPE 35.9, PBLUC_R_SQUARED 0.493, read-out: LUCIFERASE INFECTION ASSAY - IC50): 6.74 µM
N#Cc1ccc(OCc2nc3ccccc3n2C(F)F)cc1 | 4.42 µM | – | IC50 (HEPG2TOX_HILL_SLOPE 1.97, HEPG2TOX_R_SQUARED 0.844, PBLUC_HILL_SLOPE 169, PBLUC_R_SQUARED 0.414, read-out: LUCIFERASE INFECTION ASSAY - IC50): 4.36 µM
COc1ccccc1-n1c(SCCn2c([N+](=O)[O-])cnc2C)nc2sc3c(c2c1=O)CCCC3 | 4.01 µM | – | IC50 (HEPG2TOX_HILL_SLOPE 0.275, HEPG2TOX_R_SQUARED 0.775, PBLUC_HILL_SLOPE 12.8, PBLUC_R_SQUARED 0.595, read-out: LUCIFERASE INFECTION ASSAY - IC50): 3.38 µM
CCCCOc1ccc(C(=O)Nc2ccc(N(c3ccccc3)C(C)C)cc2)cc1OCC | > 10 µM | > 10 µM | –
Cc1nc(C(=O)N2CCC(C)(C(=O)NS(=O)(=O)C3CC3)C2)c(C)o1 (configuration not stated) | > 9.28 µM | > 9.28 µM | –
O=C(N/N=C/c1cccc(O)c1O)c1ccc(CN2c3cccc4cccc(c34)S2(=O)=O)cc1 | > 10 µM | – | IC50 (FFLUC_HILL_SLOPE 14.9, FFLUC_R_SQUARED 0.808, read-out: LUCIFERASE INFECTION ASSAY - IC50): > 10 µM
OC(CN1CC=C(c2c[nH]c3ccccc23)CC1)c1ccccc1 (configuration not stated) | > 10 µM | – | IC50 (HEPG2TOX_HILL_SLOPE 8.59, HEPG2TOX_R_SQUARED 0.892, PBLUC_HILL_SLOPE 2.5, PBLUC_R_SQUARED 0.397, read-out: LUCIFERASE INFECTION ASSAY - IC50): 5.3 µM
O=C(CNc1cc(C(F)(F)F)cc(C(F)(F)F)c1)NC(=O)NC1CCCC1 | > 10 µM | 5.94 µM | –
CN(C)c1cccc(-c2cnc3cnc(-c4ccccc4)cn23)c1 | > 10.5 µM | > 10.5 µM | –
C=CCN(CC(=O)NCc1ccc2c(c1)OCO2)S(=O)(=O)c1ccc(Cl)c(Cl)c1 | > 10 µM | > 10 µM | –
N#C/C(=N\Nc1ccc(Cl)cc1Cl)C(=O)c1ccc(Cl)cc1 | 1.16 µM | – | IC50 (HEPG2TOX_HILL_SLOPE 1.3, HEPG2TOX_R_SQUARED 0.915, PBLUC_HILL_SLOPE 13.3, PBLUC_R_SQUARED 0.668, read-out: LUCIFERASE INFECTION ASSAY - IC50): 0.987 µM

Structure (SMILES) | IC90 | IC50 [1] | also measured
Cc1sc2nc(-c3cccs3)nc(N3CCCN(CC(=O)NC(C)C)CC3)c2c1C | > 10 µM | – | IC50 (PBLUC_HILL_SLOPE 9.52, PBLUC_R_SQUARED 0.368, read-out: LUCIFERASE INFECTION ASSAY - IC50): 8.07 µM
Cc1cc(-c2csc(NC(=O)CCc3nc4ccccc4[nH]3)n2)c(C)s1 | > 10 µM | – | IC50 (PBLUC_HILL_SLOPE 3, PBLUC_R_SQUARED 0.654, read-out: LUCIFERASE INFECTION ASSAY - IC50): 6.46 µM
CSCC[C@H](NC(=O)CCN(c1cc(C)cc(C)c1)S(=O)(=O)c1ccc(Cl)cc1)c1nc2ccccc2[nH]1 | > 10 µM | – | IC50 (HEPG2TOX_HILL_SLOPE 1.18, HEPG2TOX_R_SQUARED 0.616, PBLUC_HILL_SLOPE 8.87, PBLUC_R_SQUARED 0.619, read-out: LUCIFERASE INFECTION ASSAY - IC50): 8.36 µM
Cc1cc2n(n1)c(C)cc(C)[n+]2-c1ccccc1 | 4.57 µM | – | IC50 (FFLUC_HILL_SLOPE 7.82, FFLUC_R_SQUARED 0.313, HEPG2TOX_HILL_SLOPE 3.53, HEPG2TOX_R_SQUARED 0.979, PBLUC_HILL_SLOPE 9.65, PBLUC_R_SQUARED 0.44, read-out: LUCIFERASE INFECTION ASSAY - IC50): 3.64 µM
CC(OC(=O)c1cc2ccccc2cc1O)C(=O)Nc1cccc(S(=O)(=O)N2CCOCC2)c1 (configuration not stated) | > 10 µM | – | IC50 (FFLUC_HILL_SLOPE 10.4, FFLUC_R_SQUARED 0.221, read-out: LUCIFERASE INFECTION ASSAY - IC50): > 10 µM
CN(Cc1ccccc1N1CCCCC1)C(=O)c1ccc(NC(=O)C2CC2)s1 | > 10 µM | > 10 µM | –
CCOC(=O)C1=C(C)NC(C)=C(C(=O)OCC)C1C(=O)OCC(=O)NC12CC3CC(CC(C3)C1)C2 | > 10 µM | – | IC50 (HEPG2TOX_HILL_SLOPE 2.54, HEPG2TOX_R_SQUARED 0.735, read-out: LUCIFERASE INFECTION ASSAY - IC50): > 10 µM
CCOc1ccc(OCC)c(S(=O)(=O)Oc2cccc3cccnc23)c1 | 7.66 µM | – | IC50 (HEPG2TOX_HILL_SLOPE 2.73, HEPG2TOX_R_SQUARED 0.737, PBLUC_HILL_SLOPE 3.92, PBLUC_R_SQUARED 0.473, read-out: LUCIFERASE INFECTION ASSAY - IC50): 4.37 µM
C=C1SC(Nc2cc(C)cc(C)c2)=NC1(C)C | > 13.4 µM | – | IC50 (PBLUC_HILL_SLOPE 0.95, PBLUC_R_SQUARED 0.559, read-out: LUCIFERASE INFECTION ASSAY - IC50): > 13.4 µM
COc1cc(-c2ccc3ncc(-c4cccc(C(C)=O)c4)n3n2)cc(OC)c1OC | 1.39 µM | – | IC50 (HEPG2TOX_HILL_SLOPE 2.19, HEPG2TOX_R_SQUARED 0.885, PBLUC_HILL_SLOPE 9.54, PBLUC_R_SQUARED 0.57, read-out: LUCIFERASE INFECTION ASSAY - IC50): 1.11 µM
O=C(Nc1cccc(NC(=O)c2ccccc2Nc2ccccc2)c1)c1ccco1 | > 10 µM | – | IC50 (PBLUC_HILL_SLOPE 2.3, PBLUC_R_SQUARED 0.121, read-out: LUCIFERASE INFECTION ASSAY - IC50): 5.43 µM
O=C(Nc1ccc(Cl)c(C(F)(F)F)c1)C(c1ccccc1)N1CC=C(c2ccccc2)CC1 (configuration not stated) | > 10 µM | – | IC50 (PBLUC_HILL_SLOPE 3.35, PBLUC_R_SQUARED 0.119, read-out: LUCIFERASE INFECTION ASSAY - IC50): 7.2 µM
O=C1CSC(=N/N=C2\SC(CC(=O)Nc3ccc(Br)cc3)C(=O)N2Cc2ccco2)N1 (configuration not stated) | > 10 µM | – | IC50 (HEPG2TOX_HILL_SLOPE 1.67, HEPG2TOX_R_SQUARED 0.878, PBLUC_HILL_SLOPE 0.95, PBLUC_R_SQUARED 0.607, read-out: LUCIFERASE INFECTION ASSAY - IC50): 5.04 µM
Cc1cc(C)cc(OCC(O)CNC(C)CCC(C)C)c1 (configuration not stated) | > 10 µM | > 10 µM | –
COc1ccc(-c2cnc3ccc(NCc4ccc(Cl)c(Cl)c4)nn23)cn1 | 4.73 µM | 4.63 µM | –
N#Cc1ccc(Nc2nc(C(F)(F)F)nc3ccccc23)cc1 | 5.09 µM | – | IC50 (HEPG2TOX_HILL_SLOPE 12.3, HEPG2TOX_R_SQUARED 0.755, PBLUC_HILL_SLOPE 4.38, PBLUC_R_SQUARED 0.727, read-out: LUCIFERASE INFECTION ASSAY - IC50): 3.08 µM
CSc1ccc(OC(=O)Nc2ccccc2)cc1 | > 12.7 µM | > 12.7 µM | –
O=C1Nc2ccc(F)cc2/C1=N/NC(=S)NC1CC2C=CC1C2 (configuration not stated) | 1.38 µM | – | IC50 (HEPG2TOX_HILL_SLOPE 0.956, HEPG2TOX_R_SQUARED 0.854, PBLUC_HILL_SLOPE 4.64, PBLUC_R_SQUARED 0.779, read-out: LUCIFERASE INFECTION ASSAY - IC50): 0.86 µM
O=C(Nc1ccccc1)Nc1ccc(Cl)cc1[N+](=O)[O-] | 5.21 µM | – | IC50 (HEPG2TOX_HILL_SLOPE 12.3, HEPG2TOX_R_SQUARED 0.323, PBLUC_HILL_SLOPE 4.88, PBLUC_R_SQUARED 0.281, read-out: LUCIFERASE INFECTION ASSAY - IC50): 3.32 µM
CC(c1ccccc1)N(C)C(=O)c1nn(-c2ccccc2)c2c1CCC2 (configuration not stated) | > 10 µM | > 10 µM | –
